Results: patent US12595252B2, “Inhibitors of SARM1” (DISARM THERAPEUTICS, INC., priority 2019, dated 2026)
Like-named read-outs stand apart in the source and are kept apart here.

Biological target: T1, SARM1 (Homo sapiens, UniProt Q6SZW1)
T1 construct: made in house; host or cells: NRK1-HEK293T cells, transiently transfected; clarified lysate used unpurified
T1 sequence (Q6SZW1 with tags, fused parts or gaps): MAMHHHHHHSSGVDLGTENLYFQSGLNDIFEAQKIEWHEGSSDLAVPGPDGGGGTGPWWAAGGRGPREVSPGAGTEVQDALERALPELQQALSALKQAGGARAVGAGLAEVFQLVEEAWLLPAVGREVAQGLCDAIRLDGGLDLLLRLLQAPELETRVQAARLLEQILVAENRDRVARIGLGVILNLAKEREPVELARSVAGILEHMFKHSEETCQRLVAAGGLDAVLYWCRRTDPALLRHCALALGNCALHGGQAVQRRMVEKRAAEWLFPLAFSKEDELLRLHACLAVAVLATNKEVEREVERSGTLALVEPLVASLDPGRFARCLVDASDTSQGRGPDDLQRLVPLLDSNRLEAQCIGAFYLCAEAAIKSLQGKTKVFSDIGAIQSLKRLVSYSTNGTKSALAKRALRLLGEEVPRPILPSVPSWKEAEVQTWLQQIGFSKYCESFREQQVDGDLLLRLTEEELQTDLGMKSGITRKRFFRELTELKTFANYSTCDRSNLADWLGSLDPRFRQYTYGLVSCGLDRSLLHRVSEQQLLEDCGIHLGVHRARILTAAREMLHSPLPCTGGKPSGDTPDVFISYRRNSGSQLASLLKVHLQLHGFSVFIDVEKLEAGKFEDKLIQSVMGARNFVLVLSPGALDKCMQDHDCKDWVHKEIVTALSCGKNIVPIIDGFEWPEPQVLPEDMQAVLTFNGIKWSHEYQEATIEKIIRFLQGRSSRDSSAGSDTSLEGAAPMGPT
Test: ARM-SAM-TIR SARM1 IC50 assay (NADase activity, NAD+ cleavage)
Type: biochemical
Description: This Example describes an assay of ARM-SAM-TIR NADase activity and use of this assay to measure the efficacy of compounds of Formula I to block SARM1 mediated NAD+ cleavage. This assay is optimized in such a way as to characterize the efficacy of the compounds in Formula I to inhibit SARM1 activity and to calculate an IC50 value for each compound. This assay makes use of full length SARM1, which encompasses the ARM, SAM and TIR domains.
NRK1-HEK293T cells were seeded onto 150 cm^2 plates at 20×10^6 cells per plate. The next day, the cells were transfected with 15 μg ARM-SAM-TIR expression plasmid, SEQ ID NO: 1.
The cultures were supplemented with 1 mM NR at time of transfection to minimize toxicity from ARM-SAM-TIR overexpression. Forty-eight hours after transfection, cells were harvested, pelleted by centrifugation at 1,000 rpm (Sorvall ST 16R centrifuge, Thermo Fisher), and washed once with cold PBS (0.01 M phosphate buffered saline NaCl 0.138 M; KCl 0.0027 M; pH 7.4). The cells were resuspended in PBS with protease inhibitors (cOmplete™ protease inhibitor cocktail, Roche product #11873580001) and cell lysates were prepared by sonication (Branson Sonifer 450, output=3, 20 episodes of stroke). The lysates were centrifuged (12,000×g for 10 min at 4° C.) to remove cell debris and the supernatants (containing ARM-SAM-TIR protein) were stored at −80° C. for later use in the in vitro ARM-SAM-TIR NADase assay (see below). Protein concentration was determined by the Bicinchoninic (BCA) method and used to normalize lysate concentrations.
The enzymatic assay was performed in a 384-well polypropylene plate in Dulbecco's PBS buffer in a final assay volume of 20 μL. ARM-SAM-TIR lysate with a final concentration of 5 μg/mL was pre-incubated with the respective compound at 1% DMSO final assay concentration over 2 h at room temperature. The reaction was initiated by addition of 5 μM final assay concentration of NAD+ as substrate. After a 2 hr room temperature incubation, the reaction was terminated with 40 μL of stop solution of 7.5% trichloroacetic acid in acetonitrile. The NAD+ and ADPR concentrations were analyzed by a RapidFire High Throughput Mass Spectrometry System (Agilent Technologies, Santa Clara, Calif.) using an API4000 triple quadrupole mass spectrometer (AB Sciex Framingham, Mass.).

[1] = ARM-SAM-TIR lysate 5 μg/mL from NRK1-HEK293T cells, 2 h pre-incubation, 5 μM NAD+, 2 hr room temperature, NAD+ and ADPR by RapidFire MS, read-out: SARM1 IC50

| SMILES | IC50 [1] | IC50 |
| --- | --- | --- |
| CN(C)Cc1ccc(N2CCN(c3cncc(OCC4CCCC4)n3)CC2)nc1 [Example 2] | > 30 µM |  |
| CCOc1cncc(NCc2ccc(N3CCN(CC)CC3)nc2)n1 [Example 3] | 5 to 15 µM |  |
| CCOc1cncc(NCc2ccc(N3CCN(CC)CC3)cc2)n1 [Example 7] | 5 to 15 µM |  |
| CCN1CCN(c2ccc(CNc3cncc(OC)n3)cn2)CC1 [Example 8] | 5 to 15 µM |  |
| CCOc1cncc(NCc2ccc(C)nc2)n1 [Example 9] |  | 5 to 15 µM |
| CCOc1cncc(NCc2ccccc2)n1 [Example 10] | 15 to 30 µM |  |
| COc1cncc(NCc2cccnc2)n1 [Example 12] | 5 to 15 µM |  |
| CC(C)Oc1cncc(NCc2cccnc2)n1 [Example 13] | > 30 µM |  |
| Oc1cncc(NCc2cccnc2)c1 [Example 14] | 5 to 15 µM |  |
| CCCCCOc1cncc(NCc2cccnc2)n1 [Example 15] | > 30 µM |  |
| CN(C)c1cncc(NCc2cccnc2)n1 [Example 16] | 15 to 30 µM |  |
| COc1cncc(NS(=O)(=O)c2cccnc2)n1 [Example 17] | > 30 µM |  |
| COc1cncc(NCc2cn[nH]c2)n1 [Example 20] | 5 to 15 µM |  |
| COc1cncc(NCc2cnn(C)c2)n1 [Example 21] | 15 to 30 µM |  |
| COc1cncc(NCc2cncnc2)n1 [Example 22] |  | 5 to 15 µM |
| COc1cncc(NC(=O)c2ccc3ccccc3n2)n1 [Example 23] | 5 to 15 µM |  |
| COc1cncc(C(=O)NCc2cccnc2)n1 [Example 24] | > 30 µM |  |
| CCNc1cncc(NCc2cccnc2)n1 [Example 25] | 15 to 30 µM |  |
| COc1cncc(NCc2cnc3ccccc3c2)n1 [Example 26] | 5 to 15 µM |  |
| COc1cncc(NCc2cncc3ccccc23)n1 [Example 27] | 5 to 15 µM |  |
| c1cncc(CNc2cncc(-n3cccn3)n2)c1 [Example 28] | 5 to 15 µM |  |
| CCN(C)c1cncc(NCc2cccnc2)n1 [Example 30] | > 30 µM |  |

| SMILES | IC50 [1] | IC50 |
| --- | --- | --- |
| COc1cncc(NC(C)c2cccnc2)n1 (stereo not shown) [Example 31] | 15 to 30 µM |  |
| COc1cncc(NC(C)c2ccccc2)n1 (stereo not shown) [Example 32] | 15 to 30 µM |  |
| COc1cncc(NCCCc2ccccc2)n1 [Example 33] | 5 to 15 µM |  |
| COc1cncc(NCc2cccnc2)c1C [Example 34] | > 30 µM |  |
| COc1nc(NCc2cccnc2)cnc1C [Example 35] | 5 to 15 µM |  |
| COc1cccc(CNc2cncc(OC)n2)c1 [Example 37] | 5 to 15 µM |  |
| COc1ccc(CNc2cncc(OC)n2)cc1 [Example 38] | 5 to 15 µM |  |
| COc1cncc(NCc2cccc(F)c2)n1 [Example 39] | 5 to 15 µM |  |
| COc1cncc(NCC2CCOCC2)n1 [Example 41] | > 30 µM |  |
| COc1cncc(NCc2ccn(C)c2)n1 [Example 42] | 5 to 15 µM |  |
| COc1ncc(NCc2cccnc2)nc1OC [Example 43] | 15 to 30 µM |  |
| COc1cncc(NCc2ccc(Cl)nc2)n1 [Example 44] |  | 5 to 15 µM |
| COc1cncc(NCC(O)c2cccc(C(F)(F)F)c2)n1 (stereo not shown) [Example 45] | 5 to 15 µM |  |
| COc1cncc(NC(=O)c2ccc3ccc(Cl)cc3n2)n1 [Example 46] | > 30 µM |  |
| COc1cncc(NCc2ccc(NC(C)=O)cc2)n1 [Example 47] | < 5 µM |  |
| COc1cncc(NCc2cnc3c(c2)ncn3C)n1 [Example 48] | 15 to 30 µM |  |
| COc1cncc(NCC2CCOC2)n1 (stereo not shown) [Example 50] | 15 to 30 µM |  |
| COc1cncc(NCc2nccn2C)n1 [Example 51] | > 30 µM |  |
| COc1cncc(NCc2ccn(C)n2)n1 [Example 54] | 5 to 15 µM |  |
| COc1cncc(NCc2cn(C)cn2)n1 [Example 55] | 15 to 30 µM |  |
| COc1cncc(NCc2cc(C)no2)n1 [Example 56] | 5 to 15 µM |  |
| COc1cncc(NCc2ccoc2)n1 [Example 58] | 5 to 15 µM |  |

| SMILES | IC50 [1] | IC50 |
| --- | --- | --- |
| COc1cncc(NCc2cccn2C)n1 [Example 59] | 15 to 30 µM |  |
| COc1cncc(NCc2cnc[nH]2)n1 [Example 61] | < 5 µM |  |
| COc1cncc(NCc2ccc(S(N)(=O)=O)cc2)n1 [Example 63] | < 5 µM |  |
| COc1cncc(NCc2ccc(C(N)=O)cc2)n1 [Example 64] | 5 to 15 µM |  |
| COc1cncc(NCc2cccc(C(N)=O)c2)n1 [Example 65] | 5 to 15 µM |  |
| COc1cncc(NCc2cc[nH]c(=O)c2)n1 [Example 66] | 5 to 15 µM |  |
| COC(=O)c1ccc(CNc2cncc(OC)n2)cc1 [Example 67] | 5 to 15 µM |  |
| COc1cncc(NCc2cnco2)n1 [Example 68] | 5 to 15 µM |  |
| COc1cncc(NCc2cnc(C)s2)n1 [Example 70] | 5 to 15 µM |  |
| Brc1cncc(CCc2ccccc2)n1 [Example 72] | > 30 µM |  |
| COc1cncc(NCc2cnn(-c3ccccc3)c2)n1 [Example 73] | 5 to 15 µM |  |
| Cn1cc(CNc2cncc(C#N)n2)cn1 [Example 75] | > 30 µM |  |
| COc1cncc(NCc2ccc(C(=O)O)cc2)n1 [Example 76] | > 30 µM |  |
| COc1cncc(NCc2ccc(N3CCOCC3)nc2)n1 [Example 77] | 5 to 15 µM |  |
| COc1cncc(NCc2ccc(N3CCC(O)CC3)nc2)n1 [Example 80] | 5 to 15 µM |  |
| COc1cncc(NCc2ccc(N3CCNCC3)nc2)n1 [Example 81] |  | 5 to 15 µM |
| COc1cncc(NCc2ccc(N3CCCCC3)nc2)n1 [Example 84] | 5 to 15 µM |  |
| COc1cncc(NCc2ccccc2F)n1 [Example 85] | 5 to 15 µM |  |
| COc1cncc(NCc2ccc(F)cc2)n1 [Example 86] | 5 to 15 µM |  |
| COc1cncc(NCc2cnn3cccnc23)n1 [Example 89] | 15 to 30 µM |  |
| COc1cncc(NCc2cnn3ccccc23)n1 [Example 90] | 15 to 30 µM |  |
| COc1cncc(NCc2ccc(C(F)(F)F)nc2)n1 [Example 91] | 15 to 30 µM |  |

| SMILES | IC50 [1] | IC50 |
| --- | --- | --- |
| COc1cncc(NCc2cnn(C(C)C)c2)n1 [Example 92] | 5 to 15 µM |  |
| COCCn1cc(CNc2cncc(OC)n2)cn1 [Example 93] | 5 to 15 µM |  |
| COc1cnnc(NCc2cccnc2)c1 [Example 94] | 15 to 30 µM |  |
| COc1cc(NCc2cccnc2)cnn1 [Example 95] | > 30 µM |  |
| COc1cncc(NCc2ccc(Br)c(C)c2)n1 [Example 100] | 5 to 15 µM |  |
| COc1cncc(NCc2ccc(Br)cc2)n1 [Example 101] | < 5 µM |  |
| COc1cncc(NCc2cnn(CCN(C)C)c2)n1 [Example 104] | 5 to 15 µM |  |
| COc1cncc(NCc2cnn(C3CCNCC3)c2)n1 [Example 105] | < 5 µM |  |
| COc1cncc(NCc2cnn(C3CCCCC3)c2)n1 [Example 106] | 5 to 15 µM |  |
| COc1cncc(NCc2cnn(C3CCN(S(C)(=O)=O)CC3)c2)n1 [Example 107] | 5 to 15 µM |  |
| COc1cc(NCc2cccnc2)[nH]c(=O)c1 [Example 108] | > 30 µM |  |
| COc1cncc(NCc2cccc(Br)c2)n1 [Example 109] | 5 to 15 µM |  |
| COc1cncc(NC(=O)c2ccccc2)c1 [Example 110] | > 30 µM |  |
| COc1cncc(NC(=O)c2cccnc2)c1 [Example 111] | > 30 µM |  |
| COc1cncc(NCc2cnc(N3CCNCC3C)nc2)n1 (stereo not shown) [Example 112] | 5 to 15 µM |  |
| COc1cncc(NCc2ccc(NCCN(C)C)nc2)n1 [Example 113] | 5 to 15 µM |  |
| COc1cncc(NCc2ccc(N3CCNC(=O)C3)nc2)n1 [Example 114] | 5 to 15 µM |  |
| Cn1cc(CNc2cncc(OCc3ccccc3)n2)cn1 [Example 115] | > 30 µM |  |
| Cn1cc(CNc2cncc(OCC(F)F)n2)cn1 [Example 116] | 15 to 30 µM |  |
